Measured values taken from ChEMBL document CHEMBL1129083, “The synthesis of 5-azido-UTP and UDP-pyridoxal and their effect on the carbamoyl-phosphate synthetase (CPS II) in the mammalian multienzyme polypeptide CAD” (Bioorg Med Chem Lett, 1996).

Key:
[1] = molecular target: Multifunctional protein CAD (Homo sapiens) (UniProt P27708); experiment: Compound was evaluated for its effect on the activity of mammalian Carbamoyl-phosphate synthetase in the multienzyme polypeptide CAD at a concentration of 1.2 mM
Chain of Multifunctional protein CAD (Homo sapiens) (P27708 whole entry): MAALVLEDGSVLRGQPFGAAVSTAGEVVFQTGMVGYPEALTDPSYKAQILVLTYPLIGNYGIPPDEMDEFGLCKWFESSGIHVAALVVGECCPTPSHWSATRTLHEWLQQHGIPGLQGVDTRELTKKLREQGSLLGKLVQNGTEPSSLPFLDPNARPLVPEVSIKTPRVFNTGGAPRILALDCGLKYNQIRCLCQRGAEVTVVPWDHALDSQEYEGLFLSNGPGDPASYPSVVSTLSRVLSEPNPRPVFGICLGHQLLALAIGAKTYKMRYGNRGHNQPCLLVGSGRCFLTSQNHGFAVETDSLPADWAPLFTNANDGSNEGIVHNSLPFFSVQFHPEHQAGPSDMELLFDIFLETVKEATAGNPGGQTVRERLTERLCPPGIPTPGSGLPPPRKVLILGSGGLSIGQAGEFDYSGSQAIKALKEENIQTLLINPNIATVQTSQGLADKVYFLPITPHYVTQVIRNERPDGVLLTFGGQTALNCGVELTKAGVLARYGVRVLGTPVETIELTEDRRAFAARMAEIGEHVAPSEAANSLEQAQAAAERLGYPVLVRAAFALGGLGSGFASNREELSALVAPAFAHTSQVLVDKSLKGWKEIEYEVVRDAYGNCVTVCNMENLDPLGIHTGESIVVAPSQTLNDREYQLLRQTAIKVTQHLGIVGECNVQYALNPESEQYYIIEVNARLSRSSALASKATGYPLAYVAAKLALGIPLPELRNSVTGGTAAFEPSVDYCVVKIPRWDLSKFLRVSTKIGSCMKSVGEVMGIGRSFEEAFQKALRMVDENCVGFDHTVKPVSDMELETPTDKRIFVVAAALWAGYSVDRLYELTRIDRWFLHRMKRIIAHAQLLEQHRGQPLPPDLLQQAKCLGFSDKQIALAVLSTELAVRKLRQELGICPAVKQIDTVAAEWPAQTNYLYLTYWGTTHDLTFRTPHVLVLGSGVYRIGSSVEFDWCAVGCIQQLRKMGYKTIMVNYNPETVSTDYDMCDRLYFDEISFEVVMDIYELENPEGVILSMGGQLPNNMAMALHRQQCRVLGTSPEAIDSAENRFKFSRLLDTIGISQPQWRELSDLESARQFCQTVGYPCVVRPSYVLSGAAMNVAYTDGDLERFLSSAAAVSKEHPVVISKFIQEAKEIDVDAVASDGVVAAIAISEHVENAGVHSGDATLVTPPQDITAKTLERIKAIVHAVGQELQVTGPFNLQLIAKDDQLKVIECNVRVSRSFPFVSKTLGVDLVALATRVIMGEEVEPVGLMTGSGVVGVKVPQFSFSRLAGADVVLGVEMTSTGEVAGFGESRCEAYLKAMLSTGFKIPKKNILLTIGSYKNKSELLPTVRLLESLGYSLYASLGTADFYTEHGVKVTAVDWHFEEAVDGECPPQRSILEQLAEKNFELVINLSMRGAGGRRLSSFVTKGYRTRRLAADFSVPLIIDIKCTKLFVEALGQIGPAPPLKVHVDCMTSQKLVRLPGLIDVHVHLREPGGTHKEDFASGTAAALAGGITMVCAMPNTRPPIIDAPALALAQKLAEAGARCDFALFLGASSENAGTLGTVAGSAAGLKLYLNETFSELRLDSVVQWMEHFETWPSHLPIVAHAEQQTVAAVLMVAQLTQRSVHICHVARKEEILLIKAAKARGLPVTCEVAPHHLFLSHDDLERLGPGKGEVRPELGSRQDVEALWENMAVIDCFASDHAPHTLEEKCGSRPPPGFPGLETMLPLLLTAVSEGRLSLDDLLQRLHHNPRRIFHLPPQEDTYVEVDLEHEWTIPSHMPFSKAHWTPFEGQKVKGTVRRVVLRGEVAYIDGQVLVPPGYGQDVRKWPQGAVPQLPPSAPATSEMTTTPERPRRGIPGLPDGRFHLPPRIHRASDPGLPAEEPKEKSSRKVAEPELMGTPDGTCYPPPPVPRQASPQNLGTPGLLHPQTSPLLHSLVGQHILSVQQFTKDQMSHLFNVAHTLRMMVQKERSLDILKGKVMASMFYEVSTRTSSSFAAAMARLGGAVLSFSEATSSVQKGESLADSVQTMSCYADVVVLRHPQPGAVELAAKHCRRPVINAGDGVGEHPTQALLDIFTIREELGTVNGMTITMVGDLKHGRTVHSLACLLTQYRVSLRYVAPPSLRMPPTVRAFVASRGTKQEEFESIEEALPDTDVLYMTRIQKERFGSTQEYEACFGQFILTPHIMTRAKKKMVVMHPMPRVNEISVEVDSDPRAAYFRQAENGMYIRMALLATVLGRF

[2] = molecular target: Multifunctional protein CAD (Homo sapiens) (UniProt P27708); experiment: Compound was evaluated for its effect on the activity of mammalian Carbamoyl-phosphate synthetase in the multienzyme polypeptide CAD at a concentration of 1.2mM
[3] = molecular target: Multifunctional protein CAD (Homo sapiens) (UniProt P27708); experiment: Compound was evaluated for its effect on the activity of mammalian Carbamoyl-phosphate synthetase in the multienzyme polypeptide CAD at a concentration of 4mM
[4] = molecular target: Multifunctional protein CAD (Homo sapiens) (UniProt P27708); experiment: Compound was evaluated for its effect on the activity of mammalian Carbamoyl-phosphate synthetase in the multienzyme polypeptide CAD at a concentration of 1.6mM
[5] = molecular target: Multifunctional protein CAD (Homo sapiens) (UniProt P27708); experiment: Compound was evaluated for its effect on the activity of mammalian Carbamoyl-phosphate synthetase in the multienzyme polypeptide CAD at a concentration of 0.4mM

Row | Compound | Activity [2] [%] | Activity [5] [%] | other results
1 | [N-]=[N+]=Nc1cn([C@@H]2O[C@H](COP(=O)(O)OP(=O)(O)OP(=O)(O)O)[C@@H](O)[C@H]2O)c(=O)[nH]c1=O |  |  | Activity [1]: 48%
2 | O=c1ccn([C@@H]2O[C@H](COP(=O)(O)OP(=O)(O)OP(=O)(O)O)[C@@H](O)[C@H]2O)c(=O)[nH]1 | 18 |  | 
3 | Nc1ncnc2c1ncn2[C@@H]1O[C@H](COP(=O)(O)OP(=O)(O)OP(=O)(O)O)[C@@H](O)[C@H]1O |  |  | Activity [3]: 100%
4 | O=c1ccn([C@@H]2O[C@H](CO)C(O)C2O)c(=O)[nH]1 (single isomer, unassigned) |  |  | Activity [4]: 100%
5 | O=P(O)(O)OC[C@H]1OC(OP(=O)(O)OP(=O)(O)O)[C@H](O)[C@@H]1O (stereo not given in full) |  | 320 | 
6 | Cc1ncc(COP(=O)(O)OP(=O)(O)OC[C@H]2OC(n3ccc(=O)[nH]c3=O)[C@H](O)[C@@H]2O)c(C=O)c1O (stereo not given in full) |  | 120 | 
7 | Cc1ncc(COP(=O)(O)O)c(C=O)c1O |  | 170 | 
8 | Cc1ncc(CO)c(C=O)c1O | 73 |  | 
9 | O=c1ccn([C@@H]2O[C@H](COP(=O)(O)OP(=O)(O)O)[C@@H](O)[C@H]2O)c(=O)[nH]1 | 54 |  | 
10 | O=P(O)(O)OC[C@H]1O[C@H](O)C(O)C1O (single isomer, unassigned) |  |  | Activity [4]: 100%
